# Assay results: publication PMC9189931 (Nature chemical biology, 2021)
# “Also recorded” adds a separate entry of the source. Numbered stars: 1 amine (or outer) side, 2 acyl side, 3 side chain; on linkers, the order of the positions; unused ones are H or OH. Bridge positions count the residues as written; N and C are the ends. Square brackets hold non-standard residues; d marks the D form. Peptide text beside a SMILES is read from it. I, II: the chains in the order shown. Actinocin(9to1) = Cc1c2oc3c(C)ccc(C(=O)[*:1])c3nc-2c(C(=O)[*:2])c(N)c1=O; NMeV = CN[C@H](C(=O)O)C(C)C; Sar = CNCC(=O)O
# What was measured:
# [1] = biological target: T1, NSD2-PWWP1 (Homo sapiens, UniProt O96028); assay: SPR binding to immobilized NSD2-PWWP1
# T1 sequence (O96028 208-368): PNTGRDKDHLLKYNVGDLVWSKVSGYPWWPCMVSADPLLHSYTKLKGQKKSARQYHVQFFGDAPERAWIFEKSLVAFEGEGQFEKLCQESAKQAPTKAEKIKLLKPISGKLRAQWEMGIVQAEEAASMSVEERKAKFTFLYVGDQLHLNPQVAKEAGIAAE
# [2] = test system: panel of 33 methyltransferase domains, including NSD1, NSD2, NSD3 and SETD2; assay: Methyltransferase selectivity panel; format: biochemical; conditions: 1 and 10 μM compound
# [3] = biological target: T2, NSD2-PWWP1 interaction with nucleosomal H3K36me2 (Homo sapiens, UniProt O96028); assay: AlphaScreen; format: binding
# T2 sequence (O96028 208-368): T1 sequence (O96028 208-368)
# [4] = biological target: T3, fl-NSD2 interaction with nucleosomal H3K36me2 (Homo sapiens, UniProt O96028); assay: AlphaScreen; format: binding; conditions: read-out: IC50, disengagement of fl-NSD2 from nucleosomal H3K36me2, in the presence of SSD (2 μg ml^−1)
# T3 sequence (O96028 1-1365): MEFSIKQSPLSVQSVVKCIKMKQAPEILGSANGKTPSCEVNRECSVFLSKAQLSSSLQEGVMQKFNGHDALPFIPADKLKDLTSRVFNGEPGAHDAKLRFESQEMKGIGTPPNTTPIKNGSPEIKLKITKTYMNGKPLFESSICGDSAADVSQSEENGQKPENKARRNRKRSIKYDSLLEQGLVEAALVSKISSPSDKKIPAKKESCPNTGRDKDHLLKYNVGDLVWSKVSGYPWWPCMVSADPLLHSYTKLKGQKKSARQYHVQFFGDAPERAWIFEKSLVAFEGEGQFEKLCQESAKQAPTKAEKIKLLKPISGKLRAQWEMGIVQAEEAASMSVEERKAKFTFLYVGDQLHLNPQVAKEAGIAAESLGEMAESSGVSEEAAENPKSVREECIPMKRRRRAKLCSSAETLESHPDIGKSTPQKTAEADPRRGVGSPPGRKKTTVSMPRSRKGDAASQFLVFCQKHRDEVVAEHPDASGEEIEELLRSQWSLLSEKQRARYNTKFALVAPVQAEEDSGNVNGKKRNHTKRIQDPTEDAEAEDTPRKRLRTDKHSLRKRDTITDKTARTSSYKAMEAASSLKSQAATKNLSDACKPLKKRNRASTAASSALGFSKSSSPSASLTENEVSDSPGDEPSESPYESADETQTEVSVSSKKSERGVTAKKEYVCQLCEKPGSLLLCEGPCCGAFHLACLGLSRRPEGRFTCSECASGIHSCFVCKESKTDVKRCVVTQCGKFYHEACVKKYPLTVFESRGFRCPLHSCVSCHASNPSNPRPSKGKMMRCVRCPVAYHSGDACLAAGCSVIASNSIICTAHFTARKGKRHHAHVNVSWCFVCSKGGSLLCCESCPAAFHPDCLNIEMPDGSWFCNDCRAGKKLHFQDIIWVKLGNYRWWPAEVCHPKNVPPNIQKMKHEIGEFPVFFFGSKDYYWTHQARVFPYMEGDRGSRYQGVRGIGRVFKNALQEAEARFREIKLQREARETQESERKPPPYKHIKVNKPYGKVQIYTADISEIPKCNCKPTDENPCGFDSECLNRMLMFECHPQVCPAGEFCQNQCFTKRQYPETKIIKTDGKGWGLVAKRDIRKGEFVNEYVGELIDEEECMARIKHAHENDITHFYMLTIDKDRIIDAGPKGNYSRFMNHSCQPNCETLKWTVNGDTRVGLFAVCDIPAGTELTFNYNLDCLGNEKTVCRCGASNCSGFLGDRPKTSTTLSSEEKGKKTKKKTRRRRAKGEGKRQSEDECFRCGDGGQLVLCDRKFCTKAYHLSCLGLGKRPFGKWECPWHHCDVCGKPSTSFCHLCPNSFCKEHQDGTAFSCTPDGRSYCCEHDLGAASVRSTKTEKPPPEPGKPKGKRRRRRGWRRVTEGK
# [5] = biological target: T4, dsDNA binding to NSD2-PWWP1 (Homo sapiens, UniProt O96028); assay: Fluorescence polarization DNA binding and displacement assay; conditions: FP
# T4 sequence (O96028 208-368): T1 sequence (O96028 208-368)
# [6] = biological target: T5, endogenous NSD2 (Homo sapiens, UniProt O96028); assay: UNC7096 chemical pulldown and chemical proteomics in KMS-11 whole-cell lysates; format: binding
# T5 sequence (O96028 1-627 limits assumed): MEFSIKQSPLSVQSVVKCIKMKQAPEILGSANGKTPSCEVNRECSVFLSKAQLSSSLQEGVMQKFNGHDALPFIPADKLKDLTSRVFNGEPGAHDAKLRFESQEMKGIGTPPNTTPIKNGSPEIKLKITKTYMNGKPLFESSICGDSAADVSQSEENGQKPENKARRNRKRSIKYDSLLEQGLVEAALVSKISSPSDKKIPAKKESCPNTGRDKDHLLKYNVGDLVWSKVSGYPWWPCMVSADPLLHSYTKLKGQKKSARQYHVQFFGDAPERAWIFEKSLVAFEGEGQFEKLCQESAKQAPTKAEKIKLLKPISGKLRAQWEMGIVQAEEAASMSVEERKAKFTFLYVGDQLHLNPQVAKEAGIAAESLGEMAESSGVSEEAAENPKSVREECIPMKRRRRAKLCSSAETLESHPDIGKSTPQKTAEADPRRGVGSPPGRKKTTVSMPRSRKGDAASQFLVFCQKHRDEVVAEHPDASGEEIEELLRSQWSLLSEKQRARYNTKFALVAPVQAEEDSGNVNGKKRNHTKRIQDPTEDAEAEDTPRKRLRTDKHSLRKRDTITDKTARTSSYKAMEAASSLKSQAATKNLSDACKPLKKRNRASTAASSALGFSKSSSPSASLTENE
# [7] = test system: adherent or hematopoietic malignancy cell lines; assay: Cytotoxicity profiling; format: cell-based; conditions: up to 5 μM over 3–12 d
# [8] = test system: endogenous NSD2 localization in U2OS cells; assay: Confocal microscopy of endogenous NSD2 nucleolar localization; format: cell-based; conditions: 4 h; for steady-state pool of nucleolar NSD2 under nucleolar perturbation: actinomycin D 50 nM, doxorubicin 1 μM
# [9] = test system: global H3K36 methylation in KMS-11 cells; assay: Western blotting for global H3K36 methylation; format: cell-based; conditions: 72 h
# [10] = test system: 15 other human PWWP domains; conditions: DSF, 100 μM compound
# [11] = test system: ribosomal RNA (rRNA) transcription; assay: rRNA transcription; conditions: for pre-rRNA expression levels by RT-qPCR: 5 μM compound at 2, 4, or 16 hours
# [12] = biological target: human sodium-dependent serotonin transporter (Homo sapiens, UniProt P31645); assay: NIMH PDSP panel of CNS receptors, channels and transporters; format: binding
# [13] = biological target: T6, NSD3-PWWP1 interaction with histone H3.3 (Homo sapiens, UniProt Q9BZ95); assay: NanoBRET PPI assay, NSD3-PWWP1; format: cell-based; conditions: U2OS cells, 10 μM compound
# T6 sequence (Q9BZ95 270-333 limits assumed): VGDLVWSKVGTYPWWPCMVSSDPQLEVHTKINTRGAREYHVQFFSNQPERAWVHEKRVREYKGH
# [14] = test system: NSD2-GFP localization in U2OS cells; assay: Nucleolar colocalization of GFP-tagged NSD2 WT and mutants with RFP-fibrillarin; format: cell-based; conditions: 4 h, 5 μM compound
# [15] = test system: fl-NSD2 chromatin association in KMS-11 cells; assay: Cell fractionation, NSD2 release from chromatin; format: cell-based; conditions: KMS-11 cell fractionation, 10 μM compound
# [16] = test system: KMS-11 t(4; 14) MM cells; assay: Proliferation of KMS-11 cocultured with OP9 bone marrow stromal cells; format: cell-based; conditions: 5 μM for 10 d before seeding on OP9
# [17] = test system: loci-specific H3K36me2 levels in KMS-11 cells; assay: H3K36me2 ChIP-qPCR; format: cell-based; conditions: 5 μM, 72 h
# [18] = test system: mRNA levels of NSD2 target genes in KMS-11 cells; assay: RT-qPCR of NSD2 target genes; format: cell-based; conditions: 5 μM, 72 h
# human sodium-dependent serotonin transporter, sequence (P31645 whole entry): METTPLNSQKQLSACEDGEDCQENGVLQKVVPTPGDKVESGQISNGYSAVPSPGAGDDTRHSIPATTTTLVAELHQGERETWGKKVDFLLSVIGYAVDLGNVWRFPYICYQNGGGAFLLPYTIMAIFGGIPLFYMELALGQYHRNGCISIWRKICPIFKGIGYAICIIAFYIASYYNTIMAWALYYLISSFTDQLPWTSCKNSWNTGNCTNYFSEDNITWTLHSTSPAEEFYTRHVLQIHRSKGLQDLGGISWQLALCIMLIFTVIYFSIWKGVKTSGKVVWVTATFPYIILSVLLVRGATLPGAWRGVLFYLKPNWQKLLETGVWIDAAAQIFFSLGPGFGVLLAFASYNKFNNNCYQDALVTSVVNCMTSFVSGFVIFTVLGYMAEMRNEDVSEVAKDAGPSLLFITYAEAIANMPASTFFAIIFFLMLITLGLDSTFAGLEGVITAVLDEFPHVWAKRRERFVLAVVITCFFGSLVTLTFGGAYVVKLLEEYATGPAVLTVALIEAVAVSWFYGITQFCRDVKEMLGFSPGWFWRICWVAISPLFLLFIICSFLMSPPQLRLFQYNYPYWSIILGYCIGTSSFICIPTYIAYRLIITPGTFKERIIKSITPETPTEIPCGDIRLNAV
smiles,measurement,setting,value
O=C1COc2cc(C(=O)N(Cc3cccs3)C3CC3)ccc2N1 [MRT866],Kd,[1],349 ± 19 nM
CC(C)N(Cc1ccc(C(=O)Nc2ccncn2)cc1)C(=O)c1ccc2c(c1)OCC(=O)N2 [UNC7145],inhibition of methyltransferases,[2],inactive
same,"IC50, disruption of NSD2-PWWP1 interaction with nucleosomal H3K36me2",[3],no measurable effect
same,IC50,[4],5100 ± 1000 nM
same,pattern of dsDNA binding to NSD2-PWWP1 in the presence of compound,"[5]; 20 μM compound, NSD2-PWWP1 up to 2.5 μM",No significant difference
same,displacement of fluorescein-labelled dsDNA from NSD2-PWWP1,[5]; compound up to 25 μM,no significant effect
same,proteins depleted from UNC7096 pulldown by competition,"[6]; label-free proteomics, 20 μM compound, relative to DMSO",did not considerably alter the enrichment profile
same,acute cytotoxic effects,[7],no acute cytotoxic effects
same,NSD2 signal within nucleoli,[8]; 5 μM compound,no effect
same,global H3K36 methylation,[9],no significant change
same,selectivity over other PWWP domains,[10],inactive
same,pre-rRNA expression levels by RT-qPCR,[11],no major effect
"Cc1c2oc3c(C)ccc(C(=O)N[C@@H]4C(=O)N[C@H](C(C)C)C(=O)N5CCC[C@H]5C(=O)N(C)CC(=O)N(C)[C@@H](C(C)C)C(=O)O[C@@H]4C)c3nc-2c(C(=O)N[C@@H]2C(=O)N[C@H](C(C)C)C(=O)N3CCC[C@H]3C(=O)N(C)CC(=O)N(C)[C@@H](C(C)C)C(=O)O[C@@H]2C)c(N)c1=O [actinomycin D, reference compound] (I: T[dV]P[Sar][NMeV] / II: T[dV]P[Sar][NMeV]; ester I:1-I:C, II:1-II:C; linker I:N-II:N via Actinocin(9to1))",steady-state pool of nucleolar NSD2 under nucleolar perturbation,[8],sensitive
O=C(CCCC[C@@H]1SC[C@@H]2NC(=O)N[C@@H]21)NCCOCCOCCOCCOCCOCCOCCOCCOCCOCCOCCOCCNC(=O)c1ccc(NC(=O)c2ccc(CN(C(=O)c3ccc4c(c3)OCC(=O)N4)C3CC3)cc2)cc1 [UNC7096],enrichment of NSD2-short and NSD2-long isoforms by pulldown,"[6]; KMS-11 whole-cell lysates, immunoblotting",efficiently enriched
same,Kd,[1],46 nM
"COc1cccc2c1C(=O)c1c(O)c3c(c(O)c1C2=O)C[C@@](O)(C(=O)CO)C[C@@H]3O[C@H]1C[C@H](N)[C@H](O)[C@H](C)O1 [doxorubicin, reference compound]",steady-state pool of nucleolar NSD2 under nucleolar perturbation,[8],sensitive
O=C1COc2cc(C(=O)N(Cc3ccc(C(=O)Nc4ccncn4)cc3)C3CC3)ccc2N1 [UNC6934],inhibition of methyltransferases,[2],did not inhibit any
same,Ki,[12],1400 ± 800 nM
same,inhibition at 10 µM,[12],> 50%
same,BRET signal of NSD3-PWWP1,[13],unaffected
same,acute cytotoxic effects,[7],no acute cytotoxic effects
same,NSD2 signal within nucleoli,[8]; 5 μM compound,increase in NSD2 signal within nucleoli
same,correlation (PCC) between NSD2 and fibrillarin signals,[8]; 5 μM compound,significant increase
same,nucleolar localization of PWWP1 aromatic cage mutant NSD2-GFP,[14],no further increase
same,nucleolar signal of WT NSD2-GFP,[14],increase in nucleolar signal
same,nucleolar colocalization of PHD2 and PWWP2 mutant NSD2-GFP,"[14]; H762R, W894A",additive effect
same,release of fl-NSD2 from chromatin,[15],modest release
same,global H3K36 methylation,[9],no significant change; also recorded: no changes
same,proliferation of KMS-11 cells grown on bone marrow stroma,[16],no changes
same,loci-specific H3K36me2 levels,[17],did not observe changes
same,mRNA levels of NSD2 target genes,[18],did not observe changes
same,effect on ribosomal RNA (rRNA) transcription,[11]; 5 μM compound,no significant effect
same,pre-rRNA expression levels by RT-qPCR,[11],no major effect
